The experiment concerns T1, glucose dehydrogenase (GDH) from Pseudomonas sp.
T1 construct: commercial enzyme, Sigma-Aldrich (UK)
Nature of the experiment: steady-state kinetics, Michaelis-Menten fit. It is filed as biochemical. The note with it: pH 5.0, 30 °C; NAD+ as co-substrate; read-out: apparent Km.

The term Km denotes the concentration of substrate that gives half-maximal velocity. Regarding `OC[C@H]1OC(O)[C@H](O)[C@@H](O)[C@@H]1O` (stereo partly shown) [glucose], the Michaelis-Menten constant (Km) is 3.6 ± 0.35 mM.

The values are drawn from paper PMC8053192, “Engineering of a borneol dehydrogenase from P. putida for the enzymatic resolution of camphor” (Applied Microbiology and Biotechnology, 2021).
